Measured values: article PMC7673371, “Real-Time Parallel Artificial Membrane Permeability Assay Based on Supramolecular Fluorescent Artificial Receptors” (Frontiers in Chemistry, 2020)
“Also recorded” adds a separate entry of the source. One block for each molecule: values may come before it.

Experiments:
[1] = RT-PAMPA with BE•CB7 as FAR, Avanti PAMPA lipid layer; type: in vitro ADME; settings: berberine∙cucurbit[7]uril reporter pair, analyte in water
[2] = RT-PAMPA with MDAP∙CB8 fluorescent receptor and Avanti lipid
Protocol: Analyte solutions were prepared at 1 mmol/L in Millipore water or cosolvents as indicated. The MDAP∙CB8 reporter pair solution contained 5 μmol/L of MDAP and 6 μmol/L of CB8 that were dissolved in Millipore water. Two lipid solutions were used, including the commercial Avanti PAMPA lipid blend I and the self-prepared 2% DOPC in dodecane. To proceed with the assay, 5 μL of the lipid solution was pipetted to the microporous filter and allowed to impregnate evenly; 300 μL of the analyte solution was transferred to the lower donor well, and 100 μL of the reporter pair solution was transferred to the upper acceptor well. The acceptor plate was combined with the donor plate after the solutions had been loaded to define the start point of the assay. Fluorescence readings were taken on a Jasco FP-8500 fluorimeter equipped with a microplate reader with an excitation wavelength at 418 nm and monitored at an emission wavelength of 449 nm.
RT-PAMPA and fluorescence titration experiments were conducted on a Jasco FP-8500 fluorimeter with an attached microplate reader. For RT-PAMPA, the analytes were prepared at 1 mmol/l, while the FARs, including MDAP•CB8 and berberine•cucurbit[7]uril (BE•CB7), were prepared at 5 μmol/l.
In the first step, 5 μl of the lipid solution (Avanti PAMPA Blend I or 2% DOPC) was loaded on the microporous bottom of the acceptor well and allowed to disperse evenly. Subsequently, 100 μl of the FAR solution was loaded in the acceptor well, and 300 μl of the analyte solution was loaded into the donor well. Immediately after the solutions were loaded, the two plates were combined with the acceptor plate on top and the donor plate at the bottom. Fluorescence intensity was recorded at 449 nm with an excitation wavelength of 418 nm for the MDAP•CB8 experiments and recorded at 500 nm with an excitation wavelength of 342 nm for the BE•CB7 experiments. For the titration experiments, 2.5 ml of the 1 μmol/l MDAP•CB8 solution was placed into a 1-cm length quartz cuvette, followed by gradual addition of the indole solution. The solution was excited at 418 nm and the fluorescence spectra were recorded upon each addition of the indole solution. The fluoresc ence decrease at 449 nm was fitted with a 1:l binding model in order to obtain the binding constants of the MDAP•CB8•indole […]
2 Blank control experiments […]
5 Calculation of permeability
The effective permeability (Pe) of an analyte was calculated with the below equation (Wohnsland and […]
logP = log {−C × ln (1 − [analyte]acceptor )}
Based on the principle of the RT-PAMPA, the concentration of analyte in the acceptor well ([analyte]acceptor) and the concentration at equilibrium ([analyte]equilibrium) were obtained with the below equations, with the knowledge of the fluorescence intensity of the acceptor well and the binding constant of the ternary MDAP•CB8•analyte complex. It should be noted that the retention of analyte in the lipid layer was not taken into account.
[analyte]acceptor = [analyte]complex + [analyte]free
= IA − IG × [G ] + IA − IG […]
[analyte] = A G × [G ] + IGA − IG […]
IA: fluorescence intensity of the acceptor well at the chosen time point; IG: initial fluorescence intensity of the acceptor well;
IGA: fluorescence intensity of the ternary complex;
[G0]: initial concentration of FAR in the acceptor well;
[A0]: initial concentration of analyte in the donor well;
VA: volume of the solution in the acceptor well;
VD: volume of the solution in the donor well;
Ka: binding constant of the ternary MDAP•CB8•analyte complex.

[3] = not told; cited from earlier work
[4] = RT-PAMPA with MDAP∙CB8 fluorescent receptor and 2% DOPC lipid; type: in vitro ADME; settings: RT-PAMPA conditions, 2% DOPC in dodecane
Protocol: with an attached microplate reader.
Subsequently, 100 μl of the
Fluorescence intensity was recorded at 449 nm
For the titration experiments,
gradual addition of the indole solution.
were recorded upon each addition of the indole solution. The fluoresc ence decrease at 449 nm was
2 Blank control experiments

[5] = 1 mmol/L analyte in donor well, MDAP∙CB8 in acceptor well, Avanti lipid, compared with absence of analyte
[6] = RT-PAMPA, fast = sharp fluorescence drop in initial several minutes, slow = response on time scale of several hours

SMILES: NC(=O)[C@@H](N)Cc1c[nH]c2ccccc12 [L-tryptophanamide]
fluorescence response indicative of analyte permeation through the lipid layer ([2]; PAMPA): significant fluorescence responses | permeation characteristics (fast or slow) from the permeation curves ([2]; PAMPA): slowly permeating | permeability coefficient (logPe) [3]: −5.56

SMILES: O=c1ccc2ccccc2o1 [coumarin]
fluorescence response indicative of analyte permeation through the lipid layer [2, 5]: significant fluorescence responses | permeation characteristics (fast or slow) from the permeation curves [2, 6]: Fast permeation

SMILES: CN(C)CCC=C1c2ccccc2COc2ccccc21 [doxepin]
fluorescence response indicative of analyte permeation through the lipid layer [2, 5]: no significant fluorescence response

SMILES: c1ccc2[nH]ccc2c1 [indole]
fluorescence response indicative of analyte permeation through the lipid layer [2, 5]: significant fluorescence responses | permeation characteristics (fast or slow) from the permeation curves [2, 6]: Fast permeation | log Pe ([2]; indole 0.010 mmol/l, time 0.15 h): –4.55 | log Pe ([2]; indole 0.010 mmol/l, time 0.30 h): –4.67 | log Pe ([2]; indole 0.010 mmol/l, time 0.45 h): –4.59 | log Pe ([2]; indole 0.010 mmol/l, time 0.58 h): –4.52 | log Pe ([2]; indole 0.010 mmol/l, time 0.73 h): –4.53 | log Pe ([2]; indole 0.010 mmol/l, time 0.87 h): –4.52 | log Pe ([2]; indole 0.010 mmol/l, time 1.43 h): –4.55 | log Pe ([2]; indole 0.010 mmol/l, time 1.85 h): –4.59 | log Pe ([2]; indole 0.1 mmol/l, time 0.15 h): –4.70 | log Pe ([2]; indole 0.1 mmol/l, time 0.30 h): –4.72 | log Pe ([2]; indole 0.1 mmol/l, time 0.45 h): –4.74 | log Pe ([2]; indole 0.1 mmol/l, time 0.58 h): –4.73 | log Pe ([2]; indole 0.1 mmol/l, time 0.73 h): –4.74 | log Pe ([2]; indole 0.1 mmol/l, time 0.87 h): –4.72 | log Pe ([2]; indole 0.1 mmol/l, time 1.43 h): –4.81 | log Pe ([2]; indole 0.1 mmol/l, time 1.85 h): –4.87 | log Pe ([2]; indole 1.0 mmol/l, time 0.15 h): –5.15 | log Pe ([2]; indole 1.0 mmol/l, time 0.30 h): –5.09 | log Pe ([2]; indole 1.0 mmol/l, time 0.45 h): –5.17 | log Pe ([2]; indole 1.0 mmol/l, time 0.58 h): –5.21 | log Pe ([2]; indole 1.0 mmol/l, time 0.73 h): –5.28 | log Pe ([2]; indole 1.0 mmol/l, time 0.87 h): –5.32 | log Pe ([2]; indole 1.0 mmol/l, time 1.43 h): –5.49 | log Pe ([2]; indole 1.0 mmol/l, time 1.85 h): –5.59

SMILES: Cc1c(OCC(F)(F)F)ccnc1C[S+]([O-])c1nc2ccccc2[nH]1 (stereo not shown) [lansoprazole]
fluorescence response indicative of analyte permeation through the lipid layer [2, 5]: significant fluorescence responses | permeation characteristics (fast or slow) from the permeation curves [2, 6]: slowly permeating

SMILES: CCC(=O)Nc1ccc(Cl)c(Cl)c1 [propanil]
fluorescence response indicative of analyte permeation through the lipid layer [2, 5]: significant fluorescence responses | permeation characteristics (fast or slow) from the permeation curves [2, 6]: Fast permeation

SMILES: c1ccc2[nH]c(-c3cscn3)nc2c1 [thiabendazole]
influence of organic cosolvent in donor well on permeation curves ([2]; 0.1 mmol/L in 2 and 20% ethanol, initial hour): overlapped | fluorescence response indicative of analyte permeation through the lipid layer [2, 5]: significant fluorescence responses | permeation characteristics (fast or slow) from the permeation curves [2, 6]: Fast permeation

Further lines, with some results ahead:

fluorescence response indicative of effective permeation [1]: strong fluorescence response
SMILES: OC12CC3CC(CC(C3)C1)C2 [1-adamantanol]

fluorescence response indicative of analyte permeation through the lipid layer [2, 5]: no significant fluorescence response
SMILES: N[C@@H](Cc1ccccc1)C(=O)O [L-Phenylalanine]

fluorescence response indicative of analyte permeation through the lipid layer [2, 5]: no significant fluorescence response
SMILES: NCCc1c[nH]c2ccc(O)cc12 [serotonin]

permeation through the 2% DOPC lipid [4]: did not permeate to a significant extent | permeation characteristics (fast or slow) from the permeation curves [2, 6]: slowly permeating
SMILES: O=c1ccc2ccc(O)cc2o1 [umbelliferone]
fluorescence response indicative of analyte permeation through the lipid layer [2, 5]: significant fluorescence responses; also recorded: appreciable permeability

fluorescence response indicative of analyte permeation through the lipid layer [2, 5]: no significant fluorescence response
SMILES: CN(C)CCc1c[nH]c2ccc(C[C@H]3COC(=O)N3)cc12 [zolmitriptan]
